Measurements as given in patent EP4706646A1, “NOVEL DOUBLE-STRANDED SIRNA, CONJUGATE THEREOF, AND USE THEREOF” (priority 2023, dated 2024).
Where two headings read alike, the source gives them in different places.

Key:
hepatitis B virus (HBV) = experiment: Anti-HBV activity in the PHH in vitro infection model (transfection or free uptake); format: cell-based, HBV serotype D; settings: for EC50: PHH infected with HBV serotype D, supernatant Day 8
Protocol: Transfection and Drug Dosing: On Day 0, revived PHH were adjusted to an appropriate density (6.67E+05 cells/ml) and seeded into 48-well cell culture plates at 1.32E+05 cells per well. On Day 1, HBV serotype D was added to infect PHH (800 GE/cell). On Day 2, fresh medium was replaced. On Day 4, the cell culture medium was discarded, and the test compound was serially diluted to the required concentration, which were then introduced into the cells via transfection using Lipofectamine™ RNAiMAX. The starting concentration of the test compound was 500 pM, and 5-fold dilutions were performed. Seven concentrations were set up in duplicate, with wells containing only the transfection reagent as the medium control. Four to five hours after transfection, fresh medium without compound was replaced. The final DMSO concentration in the medium was 2%. On Day 6, fresh medium without compound was replaced. On Day 8, cell supernatants were harvested, and cell viability was assessed using CCK-8 assay.
Drug Administration via Ad libitum uptake : On day 0, the test compound was diluted to the desired concentration in enzyme-free water, starting at 500 nM. Five-fold dilutions were performed, each with seven concentrations, in duplicate, with 22 µl added to each well of the cell culture plate. Thawed frozen PHHs were plated to an appropriate density (6.67E+05 cells/ml), with 1.32E+05 cells per well. The cells were then plated and allowed to ad libitum uptake of the test compound. On day 1, the medium was changed, and the PHHs were infected with HBV serotype D (800 GE/cell). On day 2, fresh medium was replaced without virus or test compound. The final DMSO concentration in the medium was 2%. On Day 4 and 6, fresh medium without test compound was replaced. On Day 8, cell supernatants were harvested, and cell viability was assessed using CCK-8 assay.
Sample testing: qPCR was used to detect the HBV DNA content in the cell culture supernatant; ELISA was used to detect the HBsAg and HBeAg content in the cell culture supernatant. The experimental results of the double-stranded siRNA conjugate of the present invention reducing the levels of HBsAg, HBeAg and DNA in cells are shown in Table 3. Table 3: Experimental results of the double-stranded siRNA conjugates of the present invention in reducing the levels of HBsAg, HBeAg and DNA in cells

Hepatitis B virus [1] = experiment: HBV-Tg transgenic mouse experiment, serum HBsAg and HBeAg; format: in vivo, HBV-Tg transgenic mice, C57B/6N-Tg(1.28HBV)/Vst; settings: 3 mg/kg, single subcutaneous dose
Description: Experimental Animals: HBV-Tg transgenic mice, C57B/6N-Tg(1.28HBV)/Vst, SPF-grade males, 6-8 weeks old, weighing 16-20 g, were purchased from Beijing Vitalstar Biotechnology Co.,Ltd., Animal Production Certificate No.: SCXK(Beijing)2019-0002. Animals were housed individually in individual cages by Beijing Vitalstar Biotechnology Co.,Ltd.
Animal Grouping: Based on the quantitative results of serum HBsAg (primary) and HBeAg (secondary), animals were stratified and randomly divided into groups, with 5 animals per group.
(§1) Test Sample Preparation and Administration: The required dosage of drug powder was calculated based on the purity of each test sample. At a dosing concentration of 0.6 mg/mL, the corresponding saline solution was added and mixed by vortexing until a colorless, transparent liquid was obtained. The day of the first administration was defined as Day 0. All groups received a single subcutaneous dose of 5 mL/kg on Day 0. If blood sampling was required on the day of dosing, it was performed after blood collection.
Main Outcome Measures: Animals were weighed and blood was collected once on Days 3, 7, 14, 21, 28 and 35. Serum was separated for HBsAg and HBeAg level determination.
(§2) Serum HBsAg and HBeAg Level Determination: After blood collection, serum was separated, diluted with PBS, and submitted for analysis. From each sample, 10 µL of serum was removed and diluted to 500 µL (50-fold dilution) with PBS. Serum HBsAg and HBeAg levels were measured using a Hepatitis B e Antigen Assay Kit (Mike Biotech) and a Hepatitis B Surface Antigen Assay Kit (Mike Biotech), respectively.

Hepatitis B virus [2] = experiment: Hepatitis B virus AAV mouse experiment, serum HBsAg and HBeAg; format: in vivo, rAAV8-1.3HBV/C57BL/6 Mouse; settings: 3 mg/kg, single subcutaneous dose
Description: Preparation and Grouping of rAAV8-1.3HBV/C57BL/6 Mouse Model: A persistent HBV infection mouse model was established by tail vein injection of rAAV8-1.3HBV (strain C) into C57 mice. The AAV virus injection dose was 1E+11 vg/mouse. Six weeks after injection, blood samples were collected for analysis of serum HBeAg, HBsAg and ALT levels. Based on the quantitative results of serum HBsAg (primary) and HBeAg (secondary), 35 mice were randomly divided into stratified groups, with 5 mice per group.
as §1, with “collection. Main Outcome Measures: Mice were weighed and blood was collected once on Days 3, 7, 14, 21 and 28. Serum was separated for HBsAg and HBeAg level determination.” for “collection.”
as §2, with “Kit” for “Kit (Mike Biotech)”, “Kit,” for “Kit (Mike Biotech),”

[3] = No transfection (ad libitum uptake, Day 0), ELISA, read-out: Experimental results EC50 HBeAg
[4] = No transfection (ad libitum uptake, Day 0), ELISA, read-out: Experimental results EC50 HBsAg
[5] = No transfection (ad libitum uptake, Day 0), qPCR, read-out: Experimental results EC50 DNA
[6] = compared with vehicle control group

Substance | EC50 (hepatitis B virus (HBV); [3]) [nM] | EC50 (hepatitis B virus (HBV); [4]) [nM] | EC50 (hepatitis B virus (HBV); [5]) [nM] | EC50 (hepatitis B virus (HBV); Transfection (RNAiMAX, Day 4), ELISA, read-out: Experimental results EC50 HBeAg) [nM] | EC50 (hepatitis B virus (HBV); Transfection (RNAiMAX, Day 4), ELISA, read-out: Experimental results EC50 HBsAg) [nM] | EC50 (hepatitis B virus (HBV); Transfection (RNAiMAX, Day 4), qPCR, read-out: Experimental results EC50 DNA) [nM] | inhibitory activity against HBsAg, HBeAg and DNA (hepatitis B virus (HBV); statement in words on Table 3) | inhibitory activity against HBsAg, HBeAg and DNA compared with control S148 (hepatitis B virus (HBV); without transfection) | inhibitory activity on HBsAg compared with control DAW30025 (S149) (Hepatitis B virus [1]; Figure 1) | inhibitory effect on reducing HBeAg (Hepatitis B virus [1]; [6]) | inhibitory effects on HBsAg (Hepatitis B virus [1]; compared with vehicle control group, Figure 1) | inhibitory activity against HBsAg compared with controls DAW30025 (S149) and DAW30336 (S151) (Hepatitis B virus [2]; Figure 2) | inhibitory effect on reducing HBeAg (Hepatitis B virus [2]; [6]) | inhibitory effects on HBsAg (Hepatitis B virus [2]; compared with vehicle control group, Figure 2)
S146: double-stranded siRNA conjugate; sense strand-conjugation group SEQ ID NO 21, antisense SEQ ID NO 27 u•G•ugaAYCGaaguGcAcac•u•u (sense GUGUGCACUUCGCUUCYCA; antisense UGUGAAYCGAAGUGCACACUU; conjugation group on sense strand, modifications, key not given here; listed as Albies alba) | 2.24 | 0.782 | 0.737 | 0.209 | 0.05 | 0.082 | good inhibitory activity | significantly better than that of the control S148 | significantly superior to that of the control group | a certain inhibitory effect | significant inhibitory effects | – | – | –
S147: double-stranded siRNA conjugate; sense strand-conjugation group SEQ ID NO 41, antisense SEQ ID NO 27 u•G•ugaAYCGaaguGcAcac•u•u (sense GUGUGCACUUCGCUUYACA; antisense UGUGAAYCGAAGUGCACACUU; conjugation group on sense strand, modifications, key not given here; listed as Albies alba) | – | – | – | – | – | – | – | – | – | – | – | significantly better than that of the controls | a certain inhibitory effect | significant inhibitory effects
S148: control double-stranded siRNA conjugate; sense strand-conjugation group SEQ ID NO 42, antisense SEQ ID NO 33 (sense GUGUGCACUUCGCUUCACA; antisense TGTGAAGCGAAGTGCACACTT; conjugation group on sense strand, position not given here; listed as Albies alba) [reference compound] | 7.42 | 2.9 | 5.72 | – | – | – | – | – | – | – | – | – | – | –
